# PMC11124822, “Discovery and Anticancer Screening of Novel Oxindole-Based Derivative Bearing Pyridyl Group as Potent and Selective Dual FLT3/CDK2 Kinase Inhibitor” (Pharmaceuticals, 2024)
# How the values were obtained:
# [1] = test system: NCI-60 human cancer cell lines; assay: NCI-60 screen, full panel summary; assay type: cell-based; conditions: 10 µM single dose; for Mean Growth Percent: all NCI-60 cell lines
# Experimental: In a comprehensive test, compounds were assayed at a single dose concentration (10^−5 M) in the full panel of NCI-60 cancer cell lines.
# [2] = test system: SR; assay: NCI-60 antiproliferative screen (SRB); conditions: Homo sapiens, 48 h, read-out: Growth inhibition (%)
# Experimental: (§1) Anticancer activity was tested against 60 cancer cell lines (NCI-60) after 48h treatments with a single dosage of 10 μM of compounds by using sulforhodamine B assay [39] on the traditional 96-well platform. […] The human cancer cell lines of the NCI-60 panel are grown in RPMI 1640 medium supplemented with 5% FBS (fetal bovine serum) and 2 mM L-glutamine. […] For further analysis of promising compounds, five dose screens were performed against the NCI-60 panel. Drug treatments are performed in 5 doses using 10-fold or ½ log dose dilutions.
# [3] = test system: M14; assay: NCI-60 antiproliferative screen (SRB); assay type: cell-based, human; conditions: Homo sapiens; 10 µM single dose, 48 h; M14 (Melanoma); read-out: Growth inhibition (%)
# [4] = test system: LOX IMVI; assay: NCI-60 antiproliferative screen (SRB); assay type: cell-based, human; conditions: Homo sapiens; 10 µM single dose, 48 h; LOX IMVI (Melanoma); read-out: Growth inhibition (%)
# [5] = test system: SK-OV-3; assay: NCI-60 antiproliferative screen (SRB); assay type: cell-based, human; conditions: Homo sapiens; 10 µM single dose, 48 h; SK-OV-3 (Ovarian); read-out: Growth inhibition (%)
# [6] = test system: UACC-62; assay: NCI-60 antiproliferative screen (SRB); assay type: cell-based, human; conditions: Homo sapiens; 10 µM single dose, 48 h; UACC-62 (Melanoma); read-out: Growth inhibition (%)
# [7] = test system: SF-539; assay: NCI-60 antiproliferative screen (SRB); assay type: cell-based, human; conditions: Homo sapiens; 10 µM single dose, 48 h; SF-539 (CNS); read-out: Growth inhibition (%)
# [8] = test system: OVCAR-8; assay: NCI-60 antiproliferative screen (SRB); assay type: cell-based, human; conditions: Homo sapiens; 10 µM single dose, 48 h; OVCAR-8 (Ovarian); read-out: Growth inhibition (%)
# [9] = test system: HT29; assay: NCI-60 antiproliferative screen (SRB); assay type: cell-based, human; conditions: Homo sapiens, HT-29; 10 µM single dose, 48 h; HT29 (Colon); read-out: Growth inhibition (%)
# [10] = test system: OVCAR-3; assay: NCI-60 antiproliferative screen (SRB); assay type: cell-based, human; conditions: Homo sapiens; 10 µM single dose, 48 h; OVCAR-3 (Ovarian); read-out: Growth inhibition (%)
# [11] = test system: UACC-257; assay: NCI-60 antiproliferative screen (SRB); assay type: cell-based, human; conditions: Homo sapiens; 10 µM single dose, 48 h; UACC-257 (Melanoma); read-out: Growth inhibition (%)
# [12] = test system: MDA-MB-435; assay: NCI-60 antiproliferative screen (SRB); assay type: cell-based, human; conditions: Homo sapiens; 10 µM single dose, 48 h; MDA-MB-435 (Melanoma); read-out: Growth inhibition (%)
# [13] = test system: CAKI-1; assay: NCI-60 antiproliferative screen (SRB); assay type: cell-based, human; conditions: Homo sapiens; 10 µM single dose, 48 h; CAKI-1 (Renal); read-out: Growth inhibition (%)
# [14] = test system: DU-145; assay: NCI-60 antiproliferative screen (SRB); assay type: cell-based, human; conditions: Homo sapiens; 10 µM single dose, 48 h; DU-145 (Prostate); read-out: Growth inhibition (%)
# [15] = test system: HCT-15; assay: NCI-60 antiproliferative screen (SRB); assay type: cell-based, human; conditions: Homo sapiens; 10 µM single dose, 48 h; HCT-15 (Colon); read-out: Growth inhibition (%)
# [16] = test system: NCI/ADR-RES; assay: NCI-60 antiproliferative screen (SRB); assay type: cell-based, human; conditions: Homo sapiens; 10 µM single dose, 48 h; NCI/ADR-RES (Ovarian); read-out: Growth inhibition (%)
# [17] = test system: A498; assay: NCI-60 antiproliferative screen (SRB); assay type: cell-based, human; conditions: Homo sapiens; 10 µM single dose, 48 h; A498 (Renal); read-out: Growth inhibition (%)
# [18] = test system: NCI-H460; assay: NCI-60 antiproliferative screen (SRB); assay type: cell-based, human; conditions: Homo sapiens; 10 µM single dose, 48 h; NCI-H460 (NSCLC); read-out: Growth inhibition (%)
# [19] = test system: SK-MEL-5; assay: NCI-60 antiproliferative screen (SRB); assay type: cell-based, human; conditions: Homo sapiens; 10 µM single dose, 48 h; SK-MEL-5 (Melanoma); read-out: Growth inhibition (%)
# [20] = test system: ACHN; assay: NCI-60 antiproliferative screen (SRB); assay type: cell-based, human; conditions: Homo sapiens; 10 µM single dose, 48 h; ACHN (Renal); read-out: Growth inhibition (%)
# [21] = test system: HOP-62; assay: NCI-60 antiproliferative screen (SRB); assay type: cell-based, human; conditions: Homo sapiens; 10 µM single dose, 48 h; HOP-62 (NSCLC); read-out: Growth inhibition (%)
# [22] = test system: SW-620; assay: NCI-60 antiproliferative screen (SRB); assay type: cell-based, human; conditions: Homo sapiens; 10 µM single dose, 48 h; SW-620 (Colon); read-out: Growth inhibition (%)
# [23] = test system: OVCAR-4; assay: NCI-60 antiproliferative screen (SRB); conditions: Homo sapiens, OVCAR-4, 48 h, read-out: Growth inhibition (%)
# Experimental: as §1
# [24] = test system: NCI-H23; assay: NCI-60 antiproliferative screen (SRB); assay type: cell-based, human; conditions: Homo sapiens; 10 µM single dose, 48 h; NCI-H23 (NSCLC); read-out: Growth inhibition (%)
# [25] = test system: HOP-92; assay: NCI-60 antiproliferative screen (SRB); assay type: cell-based, human; conditions: Homo sapiens; 10 µM single dose, 48 h; HOP-92 (NSCLC); read-out: Growth inhibition (%)
# [26] = test system: SNB-19; assay: NCI-60 antiproliferative screen (SRB); assay type: cell-based, human; conditions: Homo sapiens; 10 µM single dose, 48 h; SNB-19 (CNS); read-out: Growth inhibition (%)
# [27] = test system: A549/ATCC; assay: NCI-60 antiproliferative screen (SRB); assay type: cell-based, human; conditions: Homo sapiens; 10 µM single dose, 48 h; A549/ATCC (NSCLC); read-out: Growth inhibition (%)
# [28] = test system: BT-549; assay: NCI-60 antiproliferative screen (SRB); assay type: cell-based, human; conditions: Homo sapiens; 10 µM single dose, 48 h; BT-549 (Breast); read-out: Growth inhibition (%)
SMILES,Positive Cytostatic Effect (cell lines with percent growth from 0 to 50 / total number of cell lines) [1],Positive Cytotoxic Effect (cell lines with percent growth of <0 / total number of cell lines) [1],Sensitive/Total Cell Lines [1],Mean Growth Percent [1],inhibition at 10 µM [2],inhibition at 10 µM [3],inhibition at 10 µM [4],inhibition at 10 µM [5],inhibition at 10 µM [6],inhibition at 10 µM [7],inhibition at 10 µM [8],inhibition at 10 µM [9],inhibition at 10 µM [10],inhibition at 10 µM [11],inhibition at 10 µM [12],inhibition at 10 µM [13],inhibition at 10 µM [14],inhibition at 10 µM [15],inhibition at 10 µM [16],inhibition at 10 µM [17],also measured
"O=C1Nc2ccc(F)cc2C1=Cc1ccc(OCc2cccnc2)cc1 (mixture of isomers) [Compound 5j, (E/Z)-5-Fluoro-3-[4-(pyridin-3-ylmethoxy)benzylidene]indolin-2-one]",32/56,1/56,33/56,53.95,73%,67.1%,76.9%,13.2%,57.8%,63.3%,65.1%,84.1%,9.05%,39.8%,98.3%,67.6%,46.1%,84.8%,85.6%,-29.1%,The Most Sensitive Cell Line [1]: SK-MEL-5; number of cell lines with cytostatic effects [1]: 32; number of cell lines with cytotoxic effects [1]: 1; inhibition at 10 µM [18]: 53.9%; inhibition at 10 µM [19]: 113%; inhibition at 10 µM [20]: 51.8%; inhibition at 10 µM [21]: 45.4%; inhibition at 10 µM [22]: 70.1%; inhibition at 10 µM [23]: 47.2%; inhibition at 10 µM [24]: 58.2%; melting point: 187 to 189 °C; inhibition at 10 µM [25]: 25.8%; inhibition at 10 µM [26]: 62.1%; inhibition at 10 µM [27]: 39.4%; inhibition at 10 µM [28]: 65.7%
"O=C1Nc2ccccc2C1=Cc1ccc(OCc2cccnc2)cc1 (mixture of isomers) [Compound 5i, (E/Z)-3-[4-(Pyridin-3-ylmethoxy)benzylidene]indolin-2-one]",17/56,0/56,17/56,34.95,72%,37.6%,55%,13.2%,43.5%,36.2%,47.2%,32.7%,-9.24%,30.5%,60.9%,56.7%,39.8%,60.5%,55%,-17.8%,The Most Sensitive Cell Line [1]: KM12; inhibition at 10 µM [18]: 21.7%; inhibition at 10 µM [19]: 59.4%; inhibition at 10 µM [20]: 37.5%; inhibition at 10 µM [21]: 37.2%; inhibition at 10 µM [22]: 19.9%; inhibition at 10 µM [23]: 37.8%; inhibition at 10 µM [24]: 42.4%; inhibition at 10 µM [25]: 35.4%; inhibition at 10 µM [26]: 37.1%; inhibition at 10 µM [27]: 26.2%; inhibition at 10 µM [28]: 53.2%
"O=C1Nc2ccc(Cl)cc2C1=Cc1ccc(OCc2cccnc2)cc1 (mixture of isomers) [Compound 5k, (E/Z)-5-Chloro-3-[4-(pyridin-3-ylmethoxy)benzylidene] indolin-2-one]",5/56,0/56,5/56,14.49,66.1%,12.2%,10.1%,5.36%,23.3%,20.2%,23.4%,18.1%,-10.9%,2.42%,29.3%,51%,0.75%,46.5%,26%,-31.6%,inhibition at 10 µM [18]: 14.3%; inhibition at 10 µM [19]: 11.4%; inhibition at 10 µM [20]: 16.4%; inhibition at 10 µM [21]: 0.56%; inhibition at 10 µM [22]: 2.62%; inhibition at 10 µM [23]: 21.2%; inhibition at 10 µM [24]: 16.7%; melting point: 199 to 201 °C; inhibition at 10 µM [25]: -1.4%; inhibition at 10 µM [26]: 22.9%; inhibition at 10 µM [27]: 16.1%; inhibition at 10 µM [28]: 14.5%
